US20120095063A1, “METHODS AND COMPOSITIONS FOR TREATMENT OF ISCHEMIC CONDITIONS AND CONDITIONS RELATED TO MITOCHONDRIAL FUNCTION” (priority 2009, published 2012)

What was measured:
[1] = system: myocardial ischemia-reperfusion (IR) injury; experiment: Infarct size in rat model of myocardial ischemia-reperfusion (IR) injury; type: in vivo; conditions: 45 min ischemia, Epi 0.5 mg/kg and/or Nico 33 f× g/kg IV, repeated low dose, infarct size 48 h after IR
Protocol: The general methods for the implementation of the rat myocardial IR model are detailed elsewhere. The total time of myocardial ischemia was 45 min Dx-EPI (3 mg/kg) was mixed in saline solution and given IV via the jugular vein. Control animals received dextran saline solution injections. Infarct size was examined 48 h after IR using established procedures.
The general methods for the implementation of the rat myocardial IR model are described herein. The total time of myocardial ischemia was 45 min Treatment was administered a total of 1, 2 or 3 times. The initial dose was given15 min prior to reperfusion and then at 12 (in the case of 2× and 3× dosing) and again at 24 h (in the case of 3× dosing) after reperfusion. Epi (0.5 mg/kg) and/or Nico (33 f× g/kg) were mixed in water and given IV using the jugular vein. Control animals only received water injections. Infarct size was examined 48 h after IR using established procedures.

[2] = system: human skeletal muscle myocytes (HSKM cells); experiment: Oxygen consumption rate in primary human skeletal muscle myocytes; type: cell-based; conditions: 48 hours, 300 nM FCCP
Protocol: Measured endogenous rates of respiration reflect the net balance between rates of energy utilization, energy production, and mitochondrial uncoupling. This was followed by induction of resting (State 4o) respiration with the addition of 1 uM oligomycin to inhibit ATP synthase. State 4 respiration is primarily determined by the rate of proton leak across the inner mitochondrial membrane. Maximal respiration was then assessed by the addition of 300 nM FCCP, a chemical uncoupler of oxidative phosphorylation. In intact cells, this rate reflects the maximal rates of substrate oxidation and electron transport chain activity. An increase in maximal rates can reflect changes in the regulation or expression level of oxidative enzymes, electron transport chain components, or total mitochondrial mass. […] As a control, nonmitochondrial O2 consumption was measured after the addition of 100 nM rotenone and 100 nM myxothiazol to completely block the respiratory chain.
Respiration of the intact cells was measured in unbuffered DMEM containing 10 mM glucose, 10 mM pyruvate, and 2 mM glutamine. In panel A, endogenous respiration was measured on HSKM cells, followed by state 4 (resting) respiration with the addition of 1 uM oligomycin (indicated as ‘A’), and then maximal rates were measured after the addition of 300 nM FCCP, a chemical uncoupler (indicated as ‘B’). […]

[3] = system: mitochondrial swelling (damage) induced by high calcium; experiment: Calcium-induced mitochondrial swelling, EPI and NICO co-treatment, isobolographic analysis; type: biochemical; conditions: rat left ventricle mitochondria; 33 μM CaCl2; 535 nm, 30 min
Protocol: To determine the effect that (-)-epicatechin (EPI) and nicorandil (NICO) co-treatment has on mitochondrial swelling (damage) induced by high calcium, EPI or NICO, and EPI+NICO protective effects against calcium induced mitochondrial damage (swelling), were evaluated by monitoring changes in optical density (OD, light absorbance): Hearts from male rats were excised and weighed. Left ventricles were homogenized (0.1 g/mL) in solution A (Sucrose 2M, EDTA 0.01M, Hepes 0.5M: pH=7.4), centrifuged 10 min (800×g), 4° C., the supernatant was centrifuged 10 min (8000×g), 4° C. and the pellet was re-suspended in solution B (Sucrose 2M, EDTA 0.01M, Tris 0.5M-H2PO4-50 mM: pH=7.4) and centrifuged 10 min (10000×g), 4° C. Pellet was re-suspended in 10 mL of solution C (Sucrose 2M, EDTA 0.01M, Tris 0.5M-H2PO4-50 mM, Succinate 1M: pH=7.4. 33 μM of CaCl2 was then, added in order to induce mitochondrial […] (swelling measured through absorbace changes at 535 nm, monitored continuosly during 30 min Dose-response effects on mitochondrial swelling to EPI and NICO treatment were pursued.

[4] = system: electron transport chain proteins; experiment: Western blot of mitochondrial electron transport chain proteins in C2C12 cells; type: cell-based, mouse; conditions: 1 μM, 48 hours
Text: Western blots of cell lysates were used to assess levels of mitochondrial to determine if improved respiration is due to enhanced mitochondrial biogenesis.

For `Oc1cc(O)c2c(c1)O[C@H](c1ccc(O)c(O)c1)[C@H](O)C2` [Epicatechin, (−)-epicatechin], the “reduction of infarct size vs. controls” value [1] was 27%.
`O=C(NCCO[N+](=O)[O-])c1cccnc1` [nicorandil, N-[2-(Nitroxy)ethyl]-3-pyridinecarboxamide] was tested, and the “reduction of infarct size vs. controls” value [1] was 37%, the “stimulating mitochondrial function (maximal, uncoupler-stimulated respiration)” value [2] was “active” and the “effect on calcium-induced mitochondrial damage (swelling)” value [3] was “can limit”.
With catechin the “expression level of the 20 kDa subunit of complex I” value [4] was “clearly increased” and the “stimulating mitochondrial function (maximal, uncoupler-stimulated respiration)” value [2] was “active”.
